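A five-concentration, 48-hour dose response in 96-well plates underlies each endpoint, interpolated linearly between surrounding concentrations. GI50 is the concentration that inhibits growth by half.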 Active and inactive are the calls of the source. Rule as the data show it: active = GI50 up to about 1.1 µM and inactive = higher.
How the values were obtained:
Test in all cases: DTP human tumour cell line panel, 48 h
[1] = test system: RXF 393
[2] = test system: HL-60
[3] = test system: NCI-H226
[4] = test system: SN12C
[5] = test system: A498
[6] = test system: HCC 2998
[7] = test system: OVCAR-5
[8] = test system: NCI-H23
[9] = test system: KM12
[10] = test system: MDA-MB-435
[11] = test system: RPMI-8226
[12] = test system: HCT-116
[13] = test system: SK-OV-3
[14] = test system: UO-31
[15] = test system: ACHN
[16] = test system: Malme-3M
[17] = test system: HOP-92
[18] = test system: OVCAR-4
[19] = test system: SR
[20] = test system: NCI/ADR-RES

Row | Structure (SMILES) | GI50 [1] | GI50 [2] | GI50 [3] | GI50 [4] | GI50 [5] | GI50 [6] | GI50 [7] | GI50 [8] | GI50 [9] | GI50 [10] | GI50 [11] | GI50 [12] | GI50 [13] | GI50 [14] | GI50 [15] | GI50 [16] | GI50 [17] | GI50 [18] | GI50 [19] | GI50 [20]
1 | Cc1c(CNc2ccc(Cl)c(C(=O)NC(CC(=O)O)C(=O)O)c2)ccc2nc(N)nc(N)c12 (stereo not given) | > 39.4 µM (inactive) | 2.42 µM (inactive) | > 100 µM (inactive) | 0.57 µM (active) | 1.52 µM (inactive) | 0.256 µM (active) | 1.4 µM (inactive) | 0.142 µM (active) | 0.106 µM (active) | < 0.01 µM (active) | > 100 µM (inactive) | < 0.01 µM (active) | 33.7 µM (inactive) | 0.665 µM (active) | 0.0262 µM (active) | 121 µM (inactive) |  |  |  | 
2 | COC(=O)CSC1CC(=O)c2c(Cl)sc(Cl)c21 (stereo not given) | > 100 µM (inactive) |  |  | > 100 µM (inactive) |  | > 100 µM (inactive) | > 100 µM (inactive) | > 100 µM (inactive) | > 100 µM (inactive) | > 100 µM (inactive) |  | > 100 µM (inactive) | > 100 µM (inactive) | > 100 µM (inactive) | > 100 µM (inactive) | > 100 µM (inactive) | > 100 µM (inactive) | > 100 µM (inactive) | 66.2 µM (inactive) | 
3 | O=c1[nH]nc(-c2ccccc2)n1/N=C/c1c(O)ccc2ccccc12 | 23.8 µM (inactive) |  |  | 45.3 µM (inactive) |  | 28.4 µM (inactive) | > 100 µM (inactive) | 26.8 µM (inactive) | 6.75 µM (inactive) | 56.5 µM (inactive) | 82.2 µM (inactive) | 30 µM (inactive) | 28.2 µM (inactive) | 36 µM (inactive) | 26.3 µM (inactive) |  | 34.2 µM (inactive) | 15.4 µM (inactive) | 72.6 µM (inactive) | 30.3 µM (inactive)
4 | C/C=C1\CC2C(=O)CCC2C2c3ccccc3OC12 (stereo not given) | > 100 µM (inactive) | 87.7 µM (inactive) | > 100 µM (inactive) | < 0.01 µM (active) |  |  | > 100 µM (inactive) | > 100 µM (inactive) | > 100 µM (inactive) | > 100 µM (inactive) | > 100 µM (inactive) | > 100 µM (inactive) | > 100 µM (inactive) | > 100 µM (inactive) | > 100 µM (inactive) | > 100 µM (inactive) | > 100 µM (inactive) | > 100 µM (inactive) | > 100 µM (inactive) | > 100 µM (inactive)
5 | CN(C(=O)c1ccc(Cl)s1)C(=S)N(C)C(=O)c1ccc(Cl)s1 | > 10 µM (inactive) | > 10 µM (inactive) | > 10 µM (inactive) | > 10 µM (inactive) | > 10 µM (inactive) | > 10 µM (inactive) | > 10 µM (inactive) | > 10 µM (inactive) | > 10 µM (inactive) |  | > 10 µM (inactive) | > 10 µM (inactive) | > 10 µM (inactive) | > 10 µM (inactive) | > 10 µM (inactive) | > 10 µM (inactive) | > 10 µM (inactive) | > 10 µM (inactive) | > 10 µM (inactive) | > 10 µM (inactive)
6 | COc1cc2nc(Nc3cccc(Br)c3)nc(Nc3cccc(Br)c3)c2cc1OC | 18.4 µM (inactive) |  |  | 16.4 µM (inactive) |  | 23.6 µM (inactive) | 23.1 µM (inactive) | 17.7 µM (inactive) | 18.9 µM (inactive) | 19.7 µM (inactive) |  | 17.6 µM (inactive) | 19.2 µM (inactive) | 16 µM (inactive) | 16 µM (inactive) | 19.1 µM (inactive) | 15.3 µM (inactive) | 15.7 µM (inactive) |  | 19.6 µM (inactive)
7 | O=C1Nc2ccccc2/C1=C1/Nc2ccccc2/C1=N\OCCNCC(O)C(O)C(O)C(O)CO (stereo not given) | 12.5 µM (inactive) | 5.5 µM (inactive) | 13.8 µM (inactive) | 15.2 µM (inactive) |  | 11.8 µM (inactive) | > 50 µM (inactive) | 10.4 µM (inactive) | 5.14 µM (inactive) | 9.86 µM (inactive) | 19.1 µM (inactive) | 13.4 µM (inactive) | 9.66 µM (inactive) | > 50 µM (inactive) | > 50 µM (inactive) | 11.2 µM (inactive) | 10.1 µM (inactive) | 31.5 µM (inactive) | 9.55 µM (inactive) | > 50 µM (inactive)
8 | CCCCOC(=O)C(=O)C(CC(CC)C(=O)c1ccccc1)C(=O)C=C(C)C (stereo not given) | > 100 µM (inactive) | > 100 µM (inactive) | > 100 µM (inactive) | > 100 µM (inactive) |  | > 100 µM (inactive) | > 100 µM (inactive) | > 100 µM (inactive) | > 100 µM (inactive) | > 100 µM (inactive) |  | > 100 µM (inactive) | > 100 µM (inactive) | > 100 µM (inactive) | > 100 µM (inactive) |  | > 100 µM (inactive) | > 100 µM (inactive) |  | > 100 µM (inactive)
9 | O=c1[nH]n(Cc2ccccn2)c2ccc([N+](=O)[O-])cc12 | > 100 µM (inactive) | > 100 µM (inactive) | > 100 µM (inactive) | > 100 µM (inactive) | > 100 µM (inactive) | > 100 µM (inactive) | > 100 µM (inactive) | > 100 µM (inactive) | > 100 µM (inactive) |  | > 100 µM (inactive) | > 100 µM (inactive) |  | > 100 µM (inactive) | > 100 µM (inactive) | > 100 µM (inactive) | > 100 µM (inactive) | > 100 µM (inactive) | > 100 µM (inactive) | > 100 µM (inactive)
10 | COc1ccc(-c2cc(-c3cc4cc(Br)ccc4nc3Cl)c(C#N)c(N)n2)cc1 | > 12.5 µM (inactive) | > 12.5 µM (inactive) | > 12.5 µM (inactive) | > 12.5 µM (inactive) |  |  | 10.7 µM (inactive) | > 12.5 µM (inactive) | > 12.5 µM (inactive) | > 12.5 µM (inactive) | > 12.5 µM (inactive) | > 12.5 µM (inactive) | > 12.5 µM (inactive) | > 12.5 µM (inactive) |  | > 12.5 µM (inactive) | > 12.5 µM (inactive) | > 12.5 µM (inactive) | 4.28 µM (inactive) | > 12.5 µM (inactive)
11 | COc1c(C)c(C/C=C(\C)CC/C=C(\C)CC/C=C(\C)CCC=C(C)C)c(OC)c(OC)c1OC | > 100 µM (inactive) |  |  | > 100 µM (inactive) |  | > 100 µM (inactive) | > 100 µM (inactive) | > 100 µM (inactive) | > 100 µM (inactive) | > 100 µM (inactive) |  | > 100 µM (inactive) | > 100 µM (inactive) | > 100 µM (inactive) | > 100 µM (inactive) |  | > 100 µM (inactive) | > 100 µM (inactive) | > 100 µM (inactive) | > 100 µM (inactive)
12 | COc1ccc(N2C(=O)C3c4[nH]c5ccccc5c4C4CCC(C(C)(C)C)CC4C3C2=O)c(C)c1 (stereo not given) | > 100 µM (inactive) | > 100 µM (inactive) | > 100 µM (inactive) | > 100 µM (inactive) |  | > 100 µM (inactive) |  | > 100 µM (inactive) | > 100 µM (inactive) | > 100 µM (inactive) | > 100 µM (inactive) | > 100 µM (inactive) | > 100 µM (inactive) | > 100 µM (inactive) | > 100 µM (inactive) |  |  | > 100 µM (inactive) | > 100 µM (inactive) | > 100 µM (inactive)

Source: ChEMBL document CHEMBL1201862, “PubChem BioAssay data set” (2004)
